{"source": "ChEMBL document CHEMBL5137017", "about": "“Identification of NVP-CLR457 as an Orally Bioavailable Non-CNS-Penetrant pan-Class IA Phosphoinositol-3-Kinase Inhibitor” (J Med Chem, 2022)", "key": {"[1]": {"experiment": "Toxicity in athymic nude mouse xenografted with human HBRX2524 cells assessed as change in body weight at 40 mg/kg, po qd measured upto 16 days", "type": "organism-based", "conditions": "in vivo, 384 h, time < 16 day"}, "[2]": {"experiment": "Apparent permeability across apical to basolateral side in human Caco-2 cells at 10 uM measured after 120 mins by LC-MS/MS analysis", "type": "ADME, cell-based"}, "[3]": {"experiment": "Half life in Beagle dog at 6 mg/kg, po measured upto 24 hrs using crystalline form of sample by LC-MS/MS analysis", "type": "ADME, organism-based, Canis lupus familiaris", "conditions": "in vivo"}, "[4]": {"experiment": "Drug concentration in OF1 mouse brain at 1 mg/kg, iv measured at 5 mins post dose by LC-MS/MS analysis", "type": "ADME, organism-based", "conditions": "in vivo"}, "[5]": {"experiment": "Aqueous solubility of compound in buffer at pH 6.8 by HPLC analysis", "type": "physicochemical"}, "[6]": {"experiment": "Dose normalized Cmax in beagle dog at 3 mg/kg, po measured upto 24 hrs by LC-MS/MS analysis", "type": "ADME, organism-based, Canis lupus familiaris", "conditions": "in vivo"}, "[7]": {"experiment": "Dose normalized AUC in beagle dog at 3 mg/kg, po measured upto 24 hrs by LC-MS/MS analysis", "type": "ADME, organism-based, Canis lupus familiaris", "conditions": "in vivo"}, "[8]": {"tested_on": "Mus musculus", "experiment": "In vivo Inhibition of AKT phosphorylation at Ser473 residue in athymic nude mouse xenografted with rat Rat1-myr-p110alpha cells at 20 mg/kg, po qd measured after 1 to 10 hrs", "type": "functional, organism-based", "conditions": "time 1-10 hrs"}, "[9]": {"experiment": "Tmax in beagle dog at 0.3 mg/kg,po or 0.1 mg/kg,iv measured upto 24 hrs by LC-MS/MS analysis", "type": "ADME, organism-based, Canis lupus familiaris", "conditions": "in vivo"}, "[10]": {"experiment": "Effect on blood glucose level in athymic nude mouse xenografted with rat Rat1 cells expressing myr-p110alpha at 20 mg/kg, po bid measured upto 14 hrs by glucometer analysis", "type": "toxicity, organism-based", "conditions": "in vivo"}, "[11]": {"experiment": "Half life in Sprague-Dawley rat at 3 mg/kg, po or iv measured upto 24 hrs by LC-MS/MS analysis", "type": "ADME, organism-based", "conditions": "in vivo"}, "[12]": {"experiment": "Aqueous solubility of compound in buffer at pH 7.4 by HPLC analysis", "type": "physicochemical"}, "[13]": {"experiment": "Inhibition of wild type PI3K in human HCC1187 cells assessed as reduction in phosphorylation of AKT at Ser473 residue by Western blot analysis", "type": "cell-based"}, "[14]": {"experiment": "AUC(0 to Tlast) in athymic nude mouse xenografted with rat Rat1 cells expressing myr-p110alpha at 3 mg/kg, po measured after 8 days by LC-MS/MS analysis", "type": "ADME, organism-based", "design": "time 8 day, dose 3 mg/kg, route po", "conditions": "in vivo"}, "[15]": {"experiment": "Apparent permeability across basolateral to apical side in human Caco-2 cells at 10 uM measured after 120 mins by LC-MS/MS analysis", "type": "ADME, cell-based"}, "[16]": {"tested_on": "Rat1", "experiment": "Antitumor activity at rat Rat1 cells expressing myr-p110alpha xenografted in athymic nude mouse assessed as T/C ratio at 20 mg/kg, po qd measured after 14 to 22 days", "type": "functional", "conditions": "time 14-22 day"}, "[17]": {"experiment": "AUCinfinity in Beagle dog at 5.4 mg/kg, po measured upto 24 hrs using PVP-ASD form of sample by LC-MS/MS analysis", "type": "ADME, organism-based, Canis lupus familiaris", "design": "time < 24 hrs, dose 5.4 mg/kg, route po", "conditions": "in vivo"}, "[18]": {"experiment": "Toxicity in athymic nude mouse xenografted with rat Rat1 cells expressing myr-p110alpha assessed as body weight change at 20 mg/kg,po qd measured after 14 to 22 days", "type": "organism-based", "conditions": "in vivo, time 14-22 day"}, "[19]": {"experiment": "AUC(0 to Tlast) in athymic nude mouse xenografted with rat Rat1 cells expressing myr-p110alpha at 40 mg/kg, po measured after 8 days by LC-MS/MS analysis", "type": "ADME, organism-based", "design": "time 8 day, dose 40 mg/kg, route po", "conditions": "in vivo"}, "[20]": {"experiment": "cells", "conditions": "Rattus norvegicus, Rat1, 1 h"}, "[21]": {"experiment": "Tmax in OF1 mouse at 10 mg/kg,po or 3 mg/kg,iv measured upto 24 hrs by LC-MS/MS analysis", "type": "ADME, organism-based", "conditions": "in vivo"}, "[22]": {"experiment": "Aqueous solubility of compound in buffer at pH 4 by HPLC analysis", "type": "physicochemical"}, "[23]": {"experiment": "Clast in athymic nude mouse xenografted with rat Rat1 cells expressing myr-p110alpha at 20 mg/kg, po measured after 8 days by LC-MS/MS analysis", "type": "ADME, organism-based", "conditions": "in vivo, time 8 day, read-out: Clast"}, "[24]": {"experiment": "Tmax in Beagle dog at 5.4 mg/kg, po measured upto 24 hrs using PVP-ASD form of sample by LC-MS/MS analysis", "type": "ADME, organism-based, Canis lupus familiaris", "conditions": "in vivo"}, "[25]": {"experiment": "Tlast in athymic nude mouse xenografted with rat Rat1 cells expressing myr-p110alpha at 20 mg/kg, po measured after 8 days by LC-MS/MS analysis", "type": "ADME, organism-based", "conditions": "in vivo, 192 h, time 8 day"}, "[26]": {"experiment": "Cmax in athymic nude mouse xenografted with rat Rat1 cells expressing myr-p110alpha at 20 mg/kg, po measured after 8 days by LC-MS/MS analysis", "type": "ADME, organism-based", "design": "time 8 day, dose 20 mg/kg, route po", "conditions": "in vivo"}, "[27]": {"tested_on": "Caco-2", "experiment": "Nonspecific permeability coefficient in human Caco-2 cells at 0.25 to 30 uM measured after 120 mins by LC-MS/MS analysis", "type": "ADME, cell-based", "conditions": "caco-2, 2 h, dose 0.25-30 µM"}, "[28]": {"experiment": "Dose normalized AUC in OF1 mouse plasma at 3 mg/kg, iv measured upto 24 hrs by LC-MS/MS analysis", "type": "ADME, organism-based", "conditions": "in vivo"}}, "note": "Calls of active or inactive are those of the source. No cut-off for these calls is given here.", "data": [{"smiles": "C[C@H]1OC(=O)N(c2nc(-c3cnc(N)nc3C(F)(F)F)cc(N3CCOCC3)n2)[C@H]1CO", "values": [{"measurement": "Activity", "setting": "[1]", "result": "Non-Toxic"}, {"measurement": "Papp A→B at 2 h, 10 µM", "setting": "[2]", "result": 8.9, "unit": "×10⁻⁶ cm/s"}, {"measurement": "half-life", "setting": "[3]", "result": 12.9, "unit": "h"}, {"measurement": "Ct", "setting": "[4]", "result": 67, "unit": "pmol/g"}, {"measurement": "solubility", "setting": "[5]", "result": 29, "unit": "µM"}, {"measurement": "Cmax/dose", "setting": "[6]", "result": 309, "unit": "nM"}, {"measurement": "AUC/dose", "setting": "[7]", "result": 11213, "unit": "nM·h"}, {"measurement": "inhibition", "setting": "[8]", "result": "Active"}, {"measurement": "Tmax", "setting": "[9]", "result": 1.3, "unit": "h"}, {"measurement": "Activity", "setting": "[10]", "result": "Non-Toxic"}, {"measurement": "half-life", "setting": "[11]", "result": 3.3, "unit": "h"}, {"measurement": "solubility", "setting": "[12]", "result": 26, "unit": "µM"}, {"measurement": "IC50", "setting": "[13]", "result": 94, "unit": "nM"}, {"measurement": "AUC(0-t) at 192 h", "setting": "[14]", "result": 5.5, "unit": "µM·h"}, {"measurement": "Papp B→A at 2 h, 10 µM", "setting": "[15]", "result": 19, "unit": "×10⁻⁶ cm/s"}, {"measurement": "T/C", "setting": "[16]", "result": 0.04}, {"measurement": "AUC(0-inf)", "setting": "[17]", "result": 152, "unit": "µM·h"}, {"measurement": "Activity", "setting": "[18]", "result": "Non-Toxic"}, {"measurement": "AUC(0-t) at 192 h", "setting": "[19]", "result": 54, "unit": "µM·h"}, {"measurement": "IC50", "setting": "[20]", "result": 26, "unit": "nM"}, {"measurement": "Tmax", "setting": "[21]", "result": 0.5, "unit": "h"}, {"measurement": "solubility", "setting": "[22]", "result": 31, "unit": "µM"}, {"measurement": "concentration at 192 h", "setting": "[23]", "result": 110, "unit": "nM"}, {"measurement": "Tmax", "setting": "[24]", "result": 2, "unit": "h"}, {"measurement": "Tlast", "setting": "[25]", "result": 14, "unit": "h"}, {"measurement": "Cmax", "setting": "[26]", "result": 2910, "unit": "nM"}, {"measurement": "Pm", "setting": "[27]", "result": "73 10^-5 cm/min"}, {"measurement": "AUC/dose", "setting": "[28]", "result": 3580, "unit": "nM·h"}]}]}
